According to US10457678B2, “Substituted pyrrolo[2,3-b]pyridines as inhibitors of cellular necroptosis” (Institut National de la Sante et de la Recherche Medicale …, priority 2015, dated 2019):
“Also recorded” adds a separate entry of the source. Like-named read-outs stand apart in the source and are kept apart here.

Experiments:
HT29 = experiment: Necroptosis induced by TRAIL + zVAD-fmk + Bp (Birinapant) in HT29 cells; format: cell-based, human; settings: for anti-necroptotic effect by inducer (in words, summary of Table 1): TNF-, TRAIL- or FasL-induced necroptosis in mouse or human cellular models; for EC50: Homo sapiens, HT-29, HT29, TRAIL + Zvad + Bp
Procedure: (§1) Besides, the EC50 of compound 7, compound 10 and necrostatin-1 (Nec-1) were determined in mouse or human cellular models of necroptosis induced by FasL+zVAD-fmk (a pan-caspase inhibitor), TRAIL+zVAD-fmk+Bp (Birinapant, a Smac mimetics) or TNF, and by using two cytotoxic assays (MTS Cell Proliferation assay or intracellular ATP level).

Jurkat Fadd−/− = experiment: Necroptosis induced by TNF in Jurkat Fadd−/− cells (Table 1); format: cell-based; settings: Homo sapiens
From the text: (§2) TNF-α can induce necroptosis in Jurkat cells (human T lymphocytes) when FADD was deleted. This model was used to screen various libraries of chemical compounds for characterization of new inhibitors of cellular necroptosis. Details on this cell-based assay can be found in Miao and Degterev (Methods Mol. Biol. 2009, 559, 79-93). The Jurkat FADD-deficient I 2.1 cell line used was purchased from ATCC and was maintained in RPMI 1640 medium (Gibco) containing Glutamax and 15% fetal calf serum (Life Technology). Necroptosis was induced by addition of 10 ng/ml of human recombinant TNF-α (Life Technology). Necrostatin-1 (Nec-1, Enzo Life Sciences) was used as model necroptosis inhibitor. Cells were maintained in 75 cm^2 flask and passed every 2 or 3 days. Chemical collections analysed were formatted in 96-well plates with 80 molecules per plates at 10 mM in 100% DMSO. For each collection plate, 2 cell plates were seeded (one necroptosis-induced with TNF-α and the other without TNF-α). Cells were seeded at 20000 cells/well, in 40 μl of medium, in a 96-well clear, flat bottom plate (CytoOne, Starlab) before treatment. Then, 40 μl of medium with or without TNF-α at 25 ng/ml were added to all wells in the corresponding plate. Immediately after TNF-α addition, 20 μl of diluted compound at 50 μM were added to the plates. Final concentration of each chemical compound was 10 μM at 0.1% DMSO. Four positives (Nec-1 at 10 μM final) and four negative (DMSO) controls were used in each plate to validate the assay. Cells were incubated at 37° C., 5% CO2 for 24 hours before performing MTS viability assay, described hereafter. Compounds were diluted before to treat cells. Liquid handling was performed using the Nimbus Microlab liquid handler (Hamilton Robotics) under microbiological safety workbench. The 10 mM compounds were diluted at 50 μM directly in cell medium.
as §1

L929sAhFas = experiment: Necroptosis induced by FasL + zVAD-fmk in L929sAhFas cells; format: cell-based; settings: Mus musculus
Procedure: as §1

[1] = test system: Jurkat FADD-deficient I 2.1 cell line; experiment: Cell-based screening: necroptosis induced by TNF-α in Jurkat FADD-deficient cells, MTS viability assay; parameters: species or system human; settings: for EC50: Homo sapiens, Jurkat FADD-deficient cells, TNF-α 10 ng/ml, 24 hours, MTS viability assay; for inhibition of necroptosis induced by TNF-α: human T lymphocyte, Jurkat FADD deficient cell line
From the text: as §2

[2] = molecular target: T1, Human RIPK1 full length GST-tagged (Homo sapiens, UniProt Q13546); experiment: RIPK1 autophosphorylation assay; format: biochemical; settings: [γ-32P] ATP, radiographic film, FIG. 5
T1 construct: Human RIPK1 full length GST-tagged was baculovirally expressed in Sf9 cells; GST; made in house; host or cells: Sf9 insect cells (baculovirus, Bac-to-Bac expression system, Invitrogen)
T1 sequence (Q13546 1-671): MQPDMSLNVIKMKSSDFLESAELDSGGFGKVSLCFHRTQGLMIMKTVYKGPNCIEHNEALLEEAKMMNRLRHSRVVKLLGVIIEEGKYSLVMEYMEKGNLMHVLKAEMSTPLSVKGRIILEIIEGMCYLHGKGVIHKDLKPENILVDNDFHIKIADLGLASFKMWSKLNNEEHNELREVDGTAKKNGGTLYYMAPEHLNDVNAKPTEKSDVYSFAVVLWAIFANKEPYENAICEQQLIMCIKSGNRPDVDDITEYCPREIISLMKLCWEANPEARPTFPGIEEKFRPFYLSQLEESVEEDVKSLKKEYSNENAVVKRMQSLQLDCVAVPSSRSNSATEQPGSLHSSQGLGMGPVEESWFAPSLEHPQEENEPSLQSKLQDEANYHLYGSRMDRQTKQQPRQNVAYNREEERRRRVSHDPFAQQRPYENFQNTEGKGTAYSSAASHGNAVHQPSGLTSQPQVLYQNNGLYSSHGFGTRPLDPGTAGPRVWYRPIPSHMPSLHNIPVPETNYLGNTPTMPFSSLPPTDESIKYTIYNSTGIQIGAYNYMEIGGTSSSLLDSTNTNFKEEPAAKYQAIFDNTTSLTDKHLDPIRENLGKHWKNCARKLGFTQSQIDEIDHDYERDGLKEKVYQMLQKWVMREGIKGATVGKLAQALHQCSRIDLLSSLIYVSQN
Procedure: RIPK1 Autophosphorylation Assay: Human RIPK1 full length GST-tagged was baculovirally expressed in Sf9 cells according to manufacturer's instructions (Bac-to-Bac expression system, Invitrogen) and purified using gluthation-sepharose beads (GE Healthcare). The elution was made in 50 mM Tris-HCl, pH 8.0 buffer supplemented with 30 mM reduced gluthatione (Sigma). The protocol used to detect the enzymatic activity is adapted from Miao and Degterev (Methods Mol. Biol. 2009, 559, 79-93). Kinase reaction was initiated mixing 5 μl of eluted RIPK1, 5 μl of 3× kinase reaction buffer (5 mM MOPS pH 7.2, 2.5 mM β-glycerophosphate, 4 mM MgCl2, 2.5 mM MnCl2, 1 mM EGTA, 0.4 mM EDTA, 50 μg/ml BSA, 0.05 mM DTT), 2 μl H2O and 3 μl of the tested molecule. The mixture was kept on ice for 10 minutes. During the incubation, the ATP solution was prepared by mixing 5 μl of 3× kinase reaction buffer, 4 μl H2O, 6 μl cold ATP at 150 μM and 2 μCi of [γ-^32P] ATP. Add the ATP solution and the tested inhibitor to the kinase and incubate for 30 minutes at 30° C. To stop the enzymatic reaction, 5 μl of loading buffer were added and solution was heated for 3 minutes at 95° C. 25 μl of each reaction were loaded per well in pre-cast NuPage 12% Bis-Tris gel (Life Technology). Autophosphorylated RIPK1 band was visualized on radiographic film after 6 h exposition at −80° C.

[3] = MTS Cell Proliferation assay, read-out: EC50, MTS
[4] = intracellular ATP level, read-out: EC50, ATP level

CCOc1ccc(-c2cc3cccn(C(=O)N(CC)CC)c-3n2)cc1 [Compound 7, 2-(4-ethoxyphenyl)-N,N-diethyl-7H-pyrrolo[2,3-b]pyridine-7-carboxamide]
anti-necroptotic effect by inducer (in words, summary of Table 1) (HT29): only inhibits TNF- or FasL-induced necroptosis
EC50 (Jurkat Fadd−/−; [3]): 10 µM
EC50 (Jurkat Fadd−/−; [4]): 9.3 µM
EC50 (L929sAhFas; [3]): 10 µM
EC50 (L929sAhFas; [4]): 5 µM
EC50 [1]: 7 µM
inhibition of necroptosis induced by TNF-α [1]: dose-dependent inhibition

CCOc1ccc(-c2cc3cccnc3n2C(C)=O)cc1 [Compound 10, 1-(2-(4-ethoxyphenyl)-1H-pyrrolo[2,3-b]pyridin-1-yl)ethan-1-one]
inhibition of RIPK1 autophosphorylation (in words) [2]: dose-dependent inhibition; also recorded: inhibits, in a dose-dependent fashion
EC50 (HT29; [3]): 4 µM
EC50 (HT29; [4]): 5 µM
anti-necroptotic effect by inducer (in words, summary of Table 1) (HT29): inhibits TNF-, TRAIL- or FasL-induced necroptosis
EC50 (Jurkat Fadd−/−; [3]): 4 µM
EC50 (Jurkat Fadd−/−; [4]): 2.6 µM
EC50 (L929sAhFas; [3]): 3.5 µM
EC50 (L929sAhFas; [4]): 5 µM
EC50 [1]: 1.7 µM
inhibition of necroptosis induced by TNF-α [1]: dose-dependent inhibition

CCOc1ccc(-c2cc3cccnc3n2C(=O)OC(C)(C)C)cc1 [Compound 17, tert-butyl 2-(4-ethoxyphenyl)-1H-pyrrolo[2,3-b]pyridine-1-carboxylate]
EC50 [1]: 3 µM
inhibition of necroptosis induced by TNF-α [1]: dose-dependent inhibition

CCOc1ccc(-c2cc3cccn(C(=O)OCc4ccccc4)c-3n2)cc1 [Compound 21, benzyl 2-(4-ethoxyphenyl)-7H-pyrrolo[2,3-b]pyridine-7-carboxylate]
EC50 [1]: 5 µM
inhibition of necroptosis induced by TNF-α [1]: dose-dependent inhibition

CCOc1ccc(-c2cc3c(Cl)ccnc3n2C(=O)OC(C)(C)C)cc1 [Compound 26, tert-butyl 4-chloro-2-(4-ethoxyphenyl)-1H-pyrrolo[2,3-b]pyridine-1-carboxylate]
EC50 [1]: 2.4 µM
inhibition of necroptosis induced by TNF-α [1]: dose-dependent inhibition

CCOc1ccc(-c2cc3cccnc3n2C(=O)OCC(Cl)(Cl)Cl)cc1 [Compound 32, 2,2,2-trichloroethyl 2-(4-ethoxyphenyl)-1H-pyrrolo[2,3-b]pyridine-1-carboxylate]
EC50 [1]: 2.5 µM
inhibition of necroptosis induced by TNF-α [1]: dose-dependent inhibition

CCOc1ccc(-c2cc3cccnc3n2C(=O)N2CCN(S(C)(=O)=O)C2=O)cc1 [Compound 33, 1-(2-(4-ethoxyphenyl)-1H-pyrrolo[2,3-b]pyridine-1-carbonyl)-3-(methylsulfonyl) imidazolidin-2-one]
EC50 [1]: 1 µM
inhibition of necroptosis induced by TNF-α [1]: dose-dependent inhibition

CCOc1ccc(-c2cc3cccn(C(=O)N(C(C)C)C(C)C)c-3n2)cc1 [Compound 34, 2-(4-ethoxyphenyl)-N,N-diisopropyl-7H-pyrrolo[2,3-b]pyridine-7-carboxamide]
EC50 [1]: 2 µM
inhibition of necroptosis induced by TNF-α [1]: dose-dependent inhibition

CCOc1ccc(-c2cc3cccn(C(=O)N4CCCC4)c-3n2)cc1 [Compound 35, (2-(4-ethoxyphenyl)-7H-pyrrolo[2,3-b]pyridin-7-yl)(pyrrolidin-1-yl)methanone]
EC50 [1]: 3.5 µM
inhibition of necroptosis induced by TNF-α [1]: dose-dependent inhibition

CCOc1ccc(-c2cc3cccn(C(=O)N4CCN(C)CC4)c-3n2)cc1 [Compound 36, (2-(4-ethoxyphenyl)-7H-pyrrolo[2,3-b]pyridin-7-yl) (4-methylpiperazin-1-yl)methanone]
EC50 [1]: 1.05 µM
inhibition of necroptosis induced by TNF-α [1]: dose-dependent inhibition

CN1C(=O)C(Cc2c[nH]c3ccccc23)NC1=S (stereo not drawn) [Nec-1, necrostatin-1, reference compound]
EC50 (HT29; [3]): 1.2 µM
EC50 (HT29; [4]): 2 µM
EC50 (Jurkat Fadd−/−; [3]): 1.3 µM
EC50 (Jurkat Fadd−/−; [4]): 1.3 µM
EC50 (L929sAhFas; [3]): 10 µM
EC50 (L929sAhFas; [4]): 10 µM
